Values after ≈ are worked out from the molar mass of the structure shown. Like-named read-outs stand apart in the source and are kept apart here.
What was measured:
Assay type in all cases: cell-based
[1] = system: SA506 S. aureus ermA positive msrA unknown; assay: broth dilution MIC, S. aureus SA506; conditions: Staphylococcus aureus
Excerpt: (§1) We have collected MIC data for a total of 50 novel macrolides that this platform has produced against over 21 unique strains of B. subtilis, E. coli, S. aureus, S. pneumoniae, and H. influenzae, including several multidrug-resistant strains, with a special focus on macrolide resistant mechanisms (vide supra). Azithromycin was included as a control macrolide. CLSI standard procedures for broth dilution MIC determination were used. […] These genotypes can be constitutive or inducible. The finding that C4-epi (unnatural) isomers of the “azaketolide” macrolide class have enhanced activities relative to C4 natural isomers is very exciting.

[2] = system: SA101 S. aureus ATCC29213; assay: broth dilution MIC, S. aureus SA101; conditions: Staphylococcus aureus, ATCC29213, SA101 S. aureus ATCC29213; read-out: MIC
Outline: (§2)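 Broth dilution (CLSI standard) gave the minimum inhibitory concentrations. Resistance genotypes in the panel can be constitutive or inducible.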

[3] = system: Spn160 S. pneumoniae ermB unknown mefA positive; assay: broth dilution MIC, S. pneumoniae Spn160; conditions: Streptococcus pneumoniae; Spn160 S. pneumoniae ermB unknown mefA positive; read-out: MIC
Excerpt: as §1

HI281 H. influenzae = assay: broth dilution MIC, H. influenzae HI281; conditions: Haemophilus influenzae
Excerpt: as §1

[4] = system: Spn1537 S. pneumoniae ermB positive mefA positive; assay: broth dilution MIC, S. pneumoniae Spn1537; conditions: Streptococcus pneumoniae
Excerpt: as §1

E. faecalis strains = assay: MIC against E. faecalis strains (Table M8); conditions: Enterococcus faecalis, E. faecalis 29212
[5] = system: SA418 S. aureus ermA negative msrA positive; assay: broth dilution MIC, S. aureus SA418; conditions: Staphylococcus aureus
Excerpt: as §1

[6] = system: Spn1533 S. pneumoniae ermB positive mefA positive; assay: broth dilution MIC, S. pneumoniae Spn1533; conditions: Streptococcus pneumoniae
Excerpt: as §1

A. baumannii strains = assay: MIC against A. baumannii strains (Table M8); conditions: Acinetobacter baumannii, BAA747, A. baumannii BAA747-1
[7] = system: SA1707 S. aureus ermA negative msrA positive; assay: broth dilution MIC, S. aureus SA1707; conditions: Staphylococcus aureus
Excerpt: as §1

H. influenzae strains = assay: MIC against H. influenzae strains (Table M8); conditions: Haemophilus influenzae
Outline: as §2

K. pneumoniae strains = assay: MIC against K. pneumoniae strains (Table M8); conditions: Klebsiella pneumoniae, K. pneumoniae 10031
[8] = system: SA1708 S. aureus ermA positive msrA negative; assay: broth dilution MIC, S. aureus SA1708; conditions: Staphylococcus aureus
Excerpt: as §1

[9] = system: Spn1427 S. pneumoniae ermB positive mefA negative; assay: broth dilution MIC, S. pneumoniae Spn1427; conditions: Streptococcus pneumoniae
Excerpt: as §1

[10] = system: Spn1509 S. pneumoniae ermB positive mefA negative; assay: broth dilution MIC, S. pneumoniae Spn1509; conditions: Streptococcus pneumoniae; Spn1509 S. pneumoniae ermB positive mefA negative; read-out: MIC
Excerpt: as §1

E. coli strains = assay: MIC against E. coli strains (Table M7); conditions: Escherichia coli, ATCC25922, E. coli ATCC 25922
Outline: as §2

S. pneumoniae strains = assay: MIC against S. pneumoniae strains (Tables M7, M8); conditions: for MIC: Streptococcus pneumoniae
Excerpt: CLSI standard procedures for broth dilution MIC determination were used. […] These genotypes can be constitutive or inducible.

[11] = system: SA557 S. aureus ermA unknown msrA positive; assay: broth dilution MIC, S. aureus SA557; conditions: Staphylococcus aureus; SA557 S. aureus ermA unknown msrA positive; read-out: MIC
Excerpt: as §1

[12] = system: SA183 S. aureus ermA positive msrA unknown; assay: broth dilution MIC, S. aureus SA183; conditions: Staphylococcus aureus
Excerpt: as §1

[13] = system: HI175 H. influenzae ATCC49247; assay: broth dilution MIC, H. influenzae HI175; conditions: Haemophilus influenzae
Excerpt: as §1

[14] = system: Spn 106 S. pneumonia ATCC49619; assay: broth dilution MIC, S. pneumoniae Spn 106; conditions: Streptococcus pneumoniae
Excerpt: as §1

S. aureus strains = assay: MIC against S. aureus strains (Table M7); conditions: for MIC: Staphylococcus aureus
Outline: as §2

[15] = H. influenzae 49247, read-out: MIC H. influenzae (49247)
[16] = H. influenzae 49766, read-out: MIC H. influenzae (49766)
[17] = S. pneumoniae 160, read-out: MIC S. pneumonae (160)
[18] = S. pneumoniae 1509, read-out: MIC S. pneumoniae (1509)
[19] = S. pneumoniae 1533, read-out: MIC S. pneumoniae (1533)
[20] = S. pneumoniae 1537, read-out: MIC S. pneumoniae (1537)
[21] = S. pneumoniae 49619, read-out: MIC S. pneumoniae (49619)
[22] = Spn 106 S. pneumonia ATCC49619, read-out: MIC
[23] = ATCC29213, S. aureus ATCC 29213, read-out: MIC S. aureus (ATCC 29213)
[24] = S. aureus 506, read-out: MIC S. aureus (506)
[25] = S. aureus 1708, read-out: MIC S. aureus (1708)
[26] = USA300, S. aureus USA300, read-out: MIC S. aureus (USA300)

Row | Compound | MIC [1] | MIC [2] | MIC [3] | MIC (HI281 H. influenzae) | MIC [4] | MIC (E. faecalis strains) | MIC [5] | MIC [6] | MIC (A. baumannii strains) | MIC [7] | MIC (H. influenzae strains; [15]) | MIC (H. influenzae strains; [16]) | MIC (K. pneumoniae strains) | MIC [8] | MIC [9] | MIC [10] | MIC [11] | MIC [12] | MIC [13] | MIC [14, 22] | further results
1 | CC[C@H]1OC(=O)C(C)(F)C(=O)[C@H](C)[C@@H](O[C@@H]2OC(C)CC(N(C)C)C2O)[C@](C)(OC)C[C@@H](C)CN[C@H](C)[C@H]2N(CCCCn3cc(-c4cccc(N)c4)nn3)C(=O)O[C@]12C (stereo partly drawn) [FSM-20795] | > 32 µg/mL | 0.25 to 0.5 µg/mL (≈ 0.295 to 0.591 µM) | 0.0312 µg/mL (≈ 0.0369 µM) | 4 to 8 µg/mL (≈ 4.73 to 9.46 µM) | 32 µg/mL (≈ 37.8 µM) | 0.125 µg/mL (≈ 0.148 µM) | 0.5 to 1 µg/mL (≈ 0.591 to 1.18 µM) | 16 µg/mL (≈ 18.9 µM) | 16 µg/mL (≈ 18.9 µM) | 0.5 to 1 µg/mL (≈ 0.591 to 1.18 µM) | 0.5 µg/mL (≈ 0.591 µM) | 4 µg/mL (≈ 4.73 µM) | 2 µg/mL (≈ 2.36 µM) | 0.5 µg/mL (≈ 0.591 µM) | 1 to 2 µg/mL (≈ 1.18 to 2.36 µM) | 0.125 to 0.25 µg/mL (≈ 0.148 to 0.295 µM) | 0.25 to 0.5 µg/mL (≈ 0.295 to 0.591 µM) | > 32 µg/mL | 1 to 2 µg/mL (≈ 1.18 to 2.36 µM) | ≤ 0.0156 µg/mL | MIC (E. coli strains): 4 µg/mL (≈ 4.73 µM); MIC S. pneumoniae (1509) (S. pneumoniae strains; S. pneumoniae 1509): 1 µg/mL (≈ 1.18 µM); MIC (S. pneumoniae strains; [17]): ≤ 0.0625 µg/mL; MIC (S. pneumoniae strains; [18]): 0.5 µg/mL (≈ 0.591 µM); MIC (S. pneumoniae strains; [19]): > 32 µg/mL; MIC (S. pneumoniae strains; [20]): > 32 µg/mL; MIC (S. pneumoniae strains; [21]): ≤ 0.0625 µg/mL; MIC S. aureus (1708) (S. aureus strains; S. aureus 1708): 0.5 µg/mL (≈ 0.591 µM); MIC (S. aureus strains; [23]): 0.5 µg/mL (≈ 0.591 µM); MIC (S. aureus strains; S. aureus 183, read-out: MIC S. aureus (183)): > 32 µg/mL; MIC (S. aureus strains; [24]): > 32 µg/mL; MIC (S. aureus strains; [25]): 0.25 µg/mL (≈ 0.295 µM); MIC (S. aureus strains; [26]): 1 µg/mL (≈ 1.18 µM)
2 | CC[C@H]1OC(=O)C(C)C(=O)[C@@H](C)[C@@H](O[C@@H]2OC(C)CC(N(C)C)C2O)[C@](C)(OC)C[C@@H](C)CN[C@H](C)[C@H]2N(CCCCn3cc(-c4cccc(N)c4)nn3)C(=O)O[C@]12C (stereo partly drawn) [FSM-20789] | > 32 µg/mL | 2 µg/mL (≈ 2.42 µM) | 0.25 µg/mL (≈ 0.302 µM) | 8 µg/mL (≈ 9.66 µM) | > 32 µg/mL | 0.5 µg/mL (≈ 0.604 µM) | 4 µg/mL (≈ 4.83 µM) | > 32 µg/mL | 32 µg/mL (≈ 38.6 µM) | 4 µg/mL (≈ 4.83 µM) | 2 µg/mL (≈ 2.42 µM) | 8 µg/mL (≈ 9.66 µM) | 4 µg/mL (≈ 4.83 µM) | 2 µg/mL (≈ 2.42 µM) | 8 µg/mL (≈ 9.66 µM) | 1 µg/mL (≈ 1.21 µM) | 2 µg/mL (≈ 2.42 µM) | > 32 µg/mL | 4 µg/mL (≈ 4.83 µM) |  | MIC (E. coli strains): 16 µg/mL (≈ 19.3 µM); MIC (S. pneumoniae strains; [17]): 0.5 µg/mL (≈ 0.604 µM); MIC (S. pneumoniae strains; [18]): 4 µg/mL (≈ 4.83 µM); MIC (S. pneumoniae strains; [19]): > 32 µg/mL; MIC (S. pneumoniae strains; [20]): > 32 µg/mL; MIC (S. pneumoniae strains; [21]): 0.125 µg/mL (≈ 0.151 µM); MIC ([14]; ATCC49619): 0.0625 µg/mL (≈ 0.0755 µM); MIC (S. aureus strains; [23]): 2 µg/mL (≈ 2.42 µM); MIC (S. aureus strains; [24]): > 32 µg/mL; MIC (S. aureus strains; [25]): 2 µg/mL (≈ 2.42 µM); MIC (S. aureus strains; [26]): 4 µg/mL (≈ 4.83 µM)
3 | CC[C@H]1OC(=O)[C@H](C)C(=O)C[C@@H](O[C@@H]2OC(C)CC(N(C)C)C2O)[C@](C)(OC)C[C@@H](C)C(=O)N[C@H](C)[C@H]2N(CCCCn3cc(-c4ccccn4)nn3)C(=O)O[C@]12C (stereo partly drawn) [FSM-20739] | > 32 µg/mL | > 32 µg/mL | > 32 µg/mL | 32 µg/mL (≈ 39.3 µM) | > 32 µg/mL |  | > 32 µg/mL | > 32 µg/mL |  | > 32 µg/mL |  |  |  | > 32 µg/mL | > 32 µg/mL | > 32 µg/mL | > 32 µg/mL | > 32 µg/mL | > 32 µg/mL | 32 µg/mL (≈ 39.3 µM) | 
4 | CC[C@H]1OC(=O)C(C)(F)C(=O)[C@H](C)[C@@H](O[C@@H]2OC(C)CC(N(C)C)C2O)[C@](C)(OC)C[C@@H](C)CN(C)[C@H](C)[C@H]2N(CCCCn3cc(-c4cccc(N)c4)nn3)C(=O)O[C@]12C (stereo partly drawn) [FSM-20797] | > 32 µg/mL | 4 µg/mL (≈ 4.65 µM) | 0.125 µg/mL (≈ 0.145 µM) | 32 µg/mL (≈ 37.2 µM) | > 32 µg/mL | 1 µg/mL (≈ 1.16 µM) | 4 µg/mL (≈ 4.65 µM) | > 32 µg/mL | > 32 µg/mL | 8 µg/mL (≈ 9.3 µM) | 4 µg/mL (≈ 4.65 µM) | 16 µg/mL (≈ 18.6 µM) | 8 µg/mL (≈ 9.3 µM) | 8 µg/mL (≈ 9.3 µM) | 32 µg/mL (≈ 37.2 µM) | 4 µg/mL (≈ 4.65 µM) | 8 µg/mL (≈ 9.3 µM) | > 32 µg/mL | 8 µg/mL (≈ 9.3 µM) | ≤ 0.0156 µg/mL | MIC (E. coli strains): 32 µg/mL (≈ 37.2 µM); MIC (S. pneumoniae strains; [17]): 0.25 µg/mL (≈ 0.291 µM); MIC (S. pneumoniae strains; [18]): 16 µg/mL (≈ 18.6 µM); MIC (S. pneumoniae strains; [19]): > 32 µg/mL; MIC (S. pneumoniae strains; [20]): > 32 µg/mL; MIC (S. pneumoniae strains; [21]): 0.5 µg/mL (≈ 0.581 µM); MIC (S. aureus strains; [23]): 8 µg/mL (≈ 9.3 µM); MIC (S. aureus strains; [24]): > 32 µg/mL; MIC (S. aureus strains; [25]): 8 µg/mL (≈ 9.3 µM); MIC (S. aureus strains; [26]): 8 µg/mL (≈ 9.3 µM)
5 | CC[C@H]1OC(=O)[C@H](C)C(=O)[C@H](C)[C@@H](O[C@@H]2OC(C)CC(N(C)C)C2O)[C@](C)(OC)C[C@@H](C)C(=O)N[C@H](C)[C@H]2N(CCCCn3cc(-c4ccccn4)nn3)C(=O)O[C@]12C (stereo partly drawn) [FSM-20781] | > 32 µg/mL | > 32 µg/mL | > 32 µg/mL | 32 µg/mL (≈ 38.6 µM) | > 32 µg/mL |  | > 32 µg/mL | > 32 µg/mL |  | > 32 µg/mL |  |  |  | > 32 µg/mL | > 32 µg/mL | > 32 µg/mL | > 32 µg/mL | > 32 µg/mL | > 32 µg/mL | 8 µg/mL (≈ 9.66 µM) | 
